Results reported in publication PMC9023744, “The Cytochrome P450 OxyA from the Kistamicin Biosynthesis Cyclization Cascade is Highly Sensitive to Oxidative Damage” (Frontiers in Chemistry, 2022).

What was measured:
OxyAkis = target: T1, OxyAkis ([Actinomadura] parvosata, UniProt A0A1V0AG67); test: UV-visible difference spectroscopy titration, one-site model; assay type: binding
T1 construct: gene BKM31_54160; pET28a, His-tagged, expressed in E. coli Arctic Express; Ni-NTA, anion exchange, size exclusion
T1 sequence (A0A1V0AG67 entry or part of it): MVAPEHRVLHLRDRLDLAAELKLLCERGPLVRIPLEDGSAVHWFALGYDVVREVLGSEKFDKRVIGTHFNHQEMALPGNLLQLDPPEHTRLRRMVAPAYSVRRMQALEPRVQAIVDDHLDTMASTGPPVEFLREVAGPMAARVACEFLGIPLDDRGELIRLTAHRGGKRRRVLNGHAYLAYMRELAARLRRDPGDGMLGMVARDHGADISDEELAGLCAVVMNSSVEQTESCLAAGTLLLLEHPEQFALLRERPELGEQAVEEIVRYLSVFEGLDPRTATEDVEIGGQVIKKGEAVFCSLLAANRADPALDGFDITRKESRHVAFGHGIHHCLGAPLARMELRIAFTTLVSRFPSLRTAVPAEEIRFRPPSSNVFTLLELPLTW

OxyCkis = target: T2, OxyCkis; test: as above; assay type: binding; conditions: 50 mM Tris-HCl pH 8, 30°C; 2.5 µM enzyme
T2 construct: gene OxyC; recombinant, expressed in E. coli Arctic Express; Ni-NTA, anion exchange, size exclusion

c1c[nH]cn1 [imidazole]
Kd (OxyAkis): 120 µM | Kd (OxyCkis): 84 µM
